Experimental data reported in publication PMC9981942, “Pharmacokinetics and tissue distribution of Ramulus Mori (Sangzhi) alkaloids in rats and its effects on liver enzyme activity” (Frontiers in Pharmacology, 2023).
Several values for one entry are separate records, joined by “and”; a condition that tells them apart may be missing. Identical values can stand only once. Like-named read-outs stand apart in the source and are kept apart here. Values belong to the molecule of their own block, whether it stands above or below them.

How the values were obtained:
[1] = Pharmacokinetic study: plasma levels after oral SZ-A in SD rats (LC-MS/MS, DAS 3.2.8); type: in vivo; conditions: for Tmax / AUC(0-inf) / AUC(0-t) / Cmax / half-life / MRT last / MRT inf: both sexes, rat; for Tmax: SD, po; for Tmax / AUC(0-inf) / AUC(0-t) / Cmax / half-life / MRT last / MRT inf / CLz / VRT(0-t) / VRT(0-∞) / Vz: plasma; for AUC(0-inf) / AUC(0-t) / Cmax / half-life / CLz / VRT(0-t) / VRT(0-∞) / Vz: n=8; for MRT last: n=8, read-out: MRT(0-t); for MRT inf: n=8, read-out: MRT(0-∞)
Procedure: Twenty-four SD rats were fasted for 12 h (free access to water) and randomly classified into three groups (n = 8; half male and female) that received different doses of SZ-A solution (25, 50, and 200 mg/kg) via oral administration. After completion of dose administration, blood samples (0.3 mL) were collected through an indwelling catheter from the jugular vein at predetermined time points (5, 15, 30, and 45 min, 1, 2, 4, 8, and 24 h). The blood was centrifuged at 5,000 rpm for 10 min to separate the plasma. All plasma samples were stored frozen at −80°C until liquid chromatography coupled to tandem mass spectrometry (LC-MS/MS) analysis (AB SCIEX Triple Quad™ 4,500 mass spectrometer, Applied Biosystems Inc., United States).
Primary pharmacokinetic parameters, including Cmax, Tmax, area under the plasma concentration-time curve (AUC), t1/2, clearance rate, and the apparent volume of distribution, were calculated using DAS 3.2.8 (Bio Guider Co., Shanghai, China).

[2] = Tissue distribution after single oral SZ-A (20 mg/kg) in ICR mice; type: in vivo
Procedure: Twenty SD rats were randomly classified into four groups corresponding to four-time points (5 and 30 min, 4 and 12 h) (n = 20; 5 animals per time point) that received SZ-A solution (40 mg/kg) via oral administration. After the completion of dose administration, plasma and tissue samples (derived from the heart, liver, spleen, lung, kidney, aortic blood vessels, brown adipose tissue, subcutaneous adipose tissue, abdominal adipose tissue, muscle (thigh skeletal muscle), pancreas, and brain) were collected at predetermined time points. Twenty-eight ICR mice were randomly classified into four groups (n = 7 per group) corresponding to four-time points (5 and 30 min, 4 and 12 h) that received SZ-A solution (20 mg/kg) via oral administration. After the completion of dose administration, tissue samples (derived from the heart, liver, spleen, lung, kidney, aortic blood vessels, brown adipose tissue, abdominal adipose tissue, muscle (thigh skeletal muscle), pancreas, and brain) were collected at predetermined time points.
Collected tissue samples were washed with normal saline. The surface moisture was removed by blotting gently with filter paper, and the weight was recorded. After adding an appropriate amount of normal saline, these tissue samples were ground into homogenates using a cryogenic grinder (JX-CL, Shanghai Jingxin, Shanghai, China). The obtained homogenates were stored at −80°C until LC-MS/MS analysis.

[3] = Identification of metabolites in HLMs/RLMs and rat plasma (Q-Extractive high-resolution MS); type: in vitro ADME, human; conditions: HLMs/RLMs and rat plasma reaction system
Procedure: Furthermore, 5 μL of the supernatant was collected for LC-MS/MS analysis. The LC-MS/MS conditions were as follows: chromatographic column (XBridge™ Amide, 3.5 µm, 4.6 × 150 mm); mobile phase, water (0.1% ammonia) and acetonitrile, other conditions are the same as those in CYP450s inhibition study, with the following scan parameters: resolution, 70,000; AGC target, 3,000,000; maximum IT, 200 ms; and scan range, 50–600 m/z.

[4] = parameters: method as in Yang et al., 2017; conditions: ref Yang et al., 2017, cited from earlier work; for form excreted: material conservation within 24 h after oral administration of SZ-A; for oral absolute bioavailability / pharmacokinetic profile versus dose: rats; for oral absolute bioavailability: after oral administration of SZ-A; for pharmacokinetic profile versus dose: oral SZ-A 20–500 mg/kg
rat CYP2C11 = target: T1, rat CYP2C11 (Rattus norvegicus, UniProt P08683); test: Inhibition of CYP450s in rat liver microsomes, probe mephenytoin; conditions: RLMs; SZ-A 8.899 μg/mL, DNJ 20 μM, FA 5 μM, DAB 8 μM
T1 sequence (P08683 1-500): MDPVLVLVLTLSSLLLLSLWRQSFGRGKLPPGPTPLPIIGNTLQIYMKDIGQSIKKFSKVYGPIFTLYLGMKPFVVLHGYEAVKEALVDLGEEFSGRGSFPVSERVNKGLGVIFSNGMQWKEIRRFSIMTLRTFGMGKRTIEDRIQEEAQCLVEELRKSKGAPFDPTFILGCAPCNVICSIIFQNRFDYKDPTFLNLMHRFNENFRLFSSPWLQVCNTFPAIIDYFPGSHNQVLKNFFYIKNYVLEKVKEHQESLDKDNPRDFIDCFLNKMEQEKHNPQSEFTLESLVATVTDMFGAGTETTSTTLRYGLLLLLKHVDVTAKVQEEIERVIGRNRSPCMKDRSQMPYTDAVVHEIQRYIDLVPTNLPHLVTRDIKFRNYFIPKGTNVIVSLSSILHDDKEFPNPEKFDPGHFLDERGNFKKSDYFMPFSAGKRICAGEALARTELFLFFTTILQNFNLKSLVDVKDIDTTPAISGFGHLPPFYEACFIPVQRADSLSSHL

[5] = tested on: CYP450s in RLMs (other isoenzymes); test: Effect on activity of rat liver microsome isoenzymes other than CYP2C11; conditions: SZ-A 8.899 μg/mL, DNJ 20 μM, FA 5 μM, DAB 8 μM
major CYP450s in HLMs = test: Effect on activity of the major CYP450s in human liver microsomes (all isoforms together); conditions: final concentration SZ-A 8.899 μg/mL (equivalent to DNJ 20 μM), FA 5 μM, DAB 8 μM
[6] = 25 mg/kg, oral SZ-A 25 mg/kg, n=8, read-out: Tmax
[7] = 50 mg/kg, oral SZ-A 50 mg/kg, n=8, read-out: Tmax
[8] = 200 mg/kg, oral SZ-A 200 mg/kg, n=8, read-out: Tmax
[9] = 200 mg/kg, oral SZ-A 25, 50 and 200 mg/kg, read-out: time to maximum plasma concentration (Tmax), all dose groups

- Tmax [1, 6]: 0.41 ± 0.23 h
- Tmax [1, 7]: 0.63 ± 0.33 h
- Tmax [1, 8]: 0.78 ± 0.25 h
- Tmax [1, 9]: ≤ 0.88 h
- AUC(0-inf) ([1]; oral SZ-A 25 mg/kg): 7160 ± 1650 ng·h/mL
- AUC(0-t) ([1]; oral SZ-A 25 mg/kg): 7160 ± 1650 ng·h/mL
- Cmax ([1]; oral SZ-A 25 mg/kg): 4950 ± 978 ng/mL
- half-life ([1]; oral SZ-A 25 mg/kg): 1.02 ± 0.27 h
- MRT last ([1]; oral SZ-A 25 mg/kg): 1.27 ± 0.2 h
- MRT inf ([1]; oral SZ-A 25 mg/kg): 1.27 ± 0.2 h
- AUC(0-inf) ([1]; oral SZ-A 50 mg/kg): 12600 ± 3470 ng·h/mL
- AUC(0-t) ([1]; oral SZ-A 50 mg/kg): 12600 ± 3470 ng·h/mL
- Cmax ([1]; oral SZ-A 50 mg/kg): 7080 ± 1640 ng/mL
- half-life ([1]; oral SZ-A 50 mg/kg): 1.07 ± 0.04 h
- MRT last ([1]; oral SZ-A 50 mg/kg): 1.51 ± 0.42 h
- MRT inf ([1]; oral SZ-A 50 mg/kg): 1.51 ± 0.42 h
- AUC(0-inf) ([1]; oral SZ-A 200 mg/kg): 38500 ± 18000 ng·h/mL
- AUC(0-t) ([1]; oral SZ-A 200 mg/kg): 38300 ± 18000 ng·h/mL
- Cmax ([1]; oral SZ-A 200 mg/kg): 19400 ± 10800 ng/mL
- half-life ([1]; oral SZ-A 200 mg/kg): 3.25 ± 4.2 h
- MRT last ([1]; oral SZ-A 200 mg/kg): 1.79 ± 0.3 h
- MRT inf ([1]; oral SZ-A 200 mg/kg): 2.02 ± 0.59 h
- differences in t1/2 and CLz between the three doses ([1]; oral SZ-A 25, 50, 200 mg/kg): no significant differences
- CLz ([1]; oral SZ-A 25 mg/kg): 41.7 ± 11.2 mL/min/kg
- VRT(0-t) ([1]; oral SZ-A 25 mg/kg): 1.15±0.57 h^2
- VRT(0-∞) ([1]; oral SZ-A 25 mg/kg): 1.15±0.57 h^2
- Vz ([1]; oral SZ-A 25 mg/kg): 3.65 ± 1.45 L/kg
- CLz ([1]; oral SZ-A 50 mg/kg): 48 ± 12.7 mL/min/kg
- VRT(0-t) ([1]; oral SZ-A 50 mg/kg): 2.02±1.71 h^2
- VRT(0-∞) ([1]; oral SZ-A 50 mg/kg): 2.02±1.71 h^2
- Vz ([1]; oral SZ-A 50 mg/kg): 4.47 ± 1.30 L/kg
- CLz ([1]; oral SZ-A 200 mg/kg): 74.5 ± 44.2 mL/min/kg
- VRT(0-t) ([1]; oral SZ-A 200 mg/kg): 6.42±4.65 h^2
- VRT(0-∞) ([1]; oral SZ-A 200 mg/kg): 16.10±21.66 h^2
- Vz ([1]; oral SZ-A 200 mg/kg): 17.77 ± 20.83 L/kg
- distribution in aortic vessels compared with other tissues [2]: lower than that in other tissues
- tissues with the highest concentrations [2]: kidney, followed by the liver
- effect on rat CYP2C11 (rat CYP2C11): mild activation effect
- effect on other isoenzymes in RLMs [5]: no obvious effect
- effect on the major CYP450s in HLMs, either inhibition or activation (major CYP450s in HLMs): no significant effect
SMILES: OC[C@H]1NC[C@H](O)[C@@H](O)[C@@H]1O [DNJ, 1-deoxynojirimycin]
- metabolites found [3]: no detectable phase I and phase II metabolites
- form excreted [4]: mainly excreted in their original forms
- oral absolute bioavailability [4]: 72.41% and > 70%
- pharmacokinetic profile versus dose [4]: non-linear pharmacokinetics

- Tmax [1, 6]: 0.5 ± 0.3 h
- Tmax [1, 7]: 0.56 ± 0.37 h
- Tmax [1, 8]: 0.88 ± 0.27 h
- Tmax [1, 9]: ≤ 0.88 h
- AUC(0-inf) ([1]; oral SZ-A 25 mg/kg): 1040 ± 356 ng·h/mL
- AUC(0-t) ([1]; oral SZ-A 25 mg/kg): 1040 ± 356 ng·h/mL
- Cmax ([1]; oral SZ-A 25 mg/kg): 616 ± 168 ng/mL
- half-life ([1]; oral SZ-A 25 mg/kg): 1.16 ± 0.31 h
- MRT last ([1]; oral SZ-A 25 mg/kg): 1.55 ± 0.23 h
- MRT inf ([1]; oral SZ-A 25 mg/kg): 1.55 ± 0.23 h
- AUC(0-inf) ([1]; oral SZ-A 50 mg/kg): 2370 ± 634 ng·h/mL
- AUC(0-t) ([1]; oral SZ-A 50 mg/kg): 2370 ± 634 ng·h/mL
- Cmax ([1]; oral SZ-A 50 mg/kg): 1250 ± 506 ng/mL
- half-life ([1]; oral SZ-A 50 mg/kg): 1.19 ± 0.03 h
- MRT last ([1]; oral SZ-A 50 mg/kg): 1.67 ± 0.61 h
- MRT inf ([1]; oral SZ-A 50 mg/kg): 1.67 ± 0.61 h
- AUC(0-inf) ([1]; oral SZ-A 200 mg/kg): 6010 ± 1650 ng·h/mL
- AUC(0-t) ([1]; oral SZ-A 200 mg/kg): 6010 ± 1650 ng·h/mL
- Cmax ([1]; oral SZ-A 200 mg/kg): 2580 ± 1250 ng/mL
- half-life ([1]; oral SZ-A 200 mg/kg): 1.08 ± 0.04 h
- MRT last ([1]; oral SZ-A 200 mg/kg): 1.97 ± 0.22 h
- MRT inf ([1]; oral SZ-A 200 mg/kg): 1.97 ± 0.22 h
- CLz ([1]; oral SZ-A 25 mg/kg): 78.5 ± 24.3 mL/min/kg
- VRT(0-t) ([1]; oral SZ-A 25 mg/kg): 1.46±0.55 h^2
- VRT(0-∞) ([1]; oral SZ-A 25 mg/kg): 1.46±0.55 h^2
- Vz ([1]; oral SZ-A 25 mg/kg): 7.62 ± 2.89 L/kg
- CLz ([1]; oral SZ-A 50 mg/kg): 66.7 ± 17.3 mL/min/kg
- VRT(0-t) ([1]; oral SZ-A 50 mg/kg): 1.90±2.02 h^2
- VRT(0-∞) ([1]; oral SZ-A 50 mg/kg): 1.91±2.02 h^2
- Vz ([1]; oral SZ-A 50 mg/kg): 6.88 ± 1.85 L/kg
- CLz ([1]; oral SZ-A 200 mg/kg): 105 ± 26.7 mL/min/kg
- VRT(0-t) ([1]; oral SZ-A 200 mg/kg): 3.08±0.76 h^2
- VRT(0-∞) ([1]; oral SZ-A 200 mg/kg): 3.08±0.76 h^2
- Vz ([1]; oral SZ-A 200 mg/kg): 9.94 ± 2.86 L/kg
- tissues with the highest concentrations [2]: kidney, followed by the liver
- metabolites found [3]: only trace oxidation products
- effect on rat CYP2C11 (rat CYP2C11): mild activation effect
- effect on other isoenzymes in RLMs [5]: no obvious effect
- effect on the major CYP450s in HLMs, either inhibition or activation (major CYP450s in HLMs): no significant effect
SMILES: OC[C@H]1NCC[C@@H](O)[C@@H]1O [FA, fagomine]
- form excreted [4]: mainly excreted in their original forms
- oral absolute bioavailability [4]: 77.50% and > 70%
- pharmacokinetic profile versus dose [4]: non-linear pharmacokinetics
